Read-outs that look alike come from different tables or passages of the source.
Key:
[1] = test system: A/Hanoi/UT30408(clone 7)/2005 (H5N1); parameters: species or system mice (Balb/c); conditions: mouse, in vivo
[2] = test system: H5N1 influenza virus A/Hanoi/30408/2005 (clone 7), oseltamivir sensitive strain; assay: microbe, parasite or virus in culture; format: cell-based

Molecule: 5-Acetamido-4-guanidino-9-O-octanoyl-2,3,4,5-tetradeoxy-7-O-methyl-D-glycero-D-galacto-non-2-enopyranosoic acid [Compound of Preparation Example 1]
- number of mice surviving, Day 10 [1]: 7

Molecule: CC(=O)N[C@H]1[C@H]([C@H](O)[C@H](O)CO)OC(C(=O)O)=C[C@@H]1N=C(N)N [Zanamivir, reference compound]
- IC50 ([2]; read-out: Viral Proliferation Inhibitory Activity (IC50)): 3.3 nM

Molecule: CO[C@@H]([C@@H]1OC(C(=O)O)=C[C@H](NC(=N)N)[C@H]1NC(C)=O)[C@H](O)CO [Compound of Preparation Example 2, 5-Acetamido-4-guanidino-2,3,4,5-tetradeoxy-7-O-methyl-D-glycero-D-galacto-non-2-enopyranosoic acid]
- IC50 ([2]; Influenza A virus, H5N1, MDCK, read-out: Viral Proliferation Inhibitory Activity (IC50, nM)): 0.43 nM
